Data on 35 molecules can be found in patent US20160137639A1, “TRIAZOLE-ISOXAZOLE COMPOUND AND MEDICAL USE THEREOF” (JAPAN TOBACCO INC., priority 2012, published 2016).

The target of one assay is T1, human RORγ (Homo sapiens, UniProt P51449).
T1 construct: human, NM_005060.3 and from Ser253 to Lys518; expressed in transfected cells; host or cells: CHO cells (transient co-transfection with pG5-Luc reporter)
T1 sequence (P51449 253-518): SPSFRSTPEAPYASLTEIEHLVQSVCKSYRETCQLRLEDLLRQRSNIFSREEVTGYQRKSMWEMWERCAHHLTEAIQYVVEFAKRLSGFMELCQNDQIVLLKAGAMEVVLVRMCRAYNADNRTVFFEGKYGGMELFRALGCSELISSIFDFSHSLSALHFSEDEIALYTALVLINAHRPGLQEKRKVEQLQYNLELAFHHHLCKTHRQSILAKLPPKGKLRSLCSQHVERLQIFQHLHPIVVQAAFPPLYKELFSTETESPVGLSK
Description: Luciferase reporter gene assay of inhibitory effect against RORγ transcriptional activity (GAL4-hRORγ plasmid in CHO cells). Format: cell-based. To be noted: read-out: LUC EC50 hRORg.

In the next assay the target is T2, mouse RORγ (Mus musculus, UniProt P51450).
T2 construct: mouse, NM_011281.2 and from Ile251 to Lys516; expressed in transfected cells; host or cells: CHO cells (transient co-transfection with pG5-Luc reporter)
T2 sequence (P51450 251-516): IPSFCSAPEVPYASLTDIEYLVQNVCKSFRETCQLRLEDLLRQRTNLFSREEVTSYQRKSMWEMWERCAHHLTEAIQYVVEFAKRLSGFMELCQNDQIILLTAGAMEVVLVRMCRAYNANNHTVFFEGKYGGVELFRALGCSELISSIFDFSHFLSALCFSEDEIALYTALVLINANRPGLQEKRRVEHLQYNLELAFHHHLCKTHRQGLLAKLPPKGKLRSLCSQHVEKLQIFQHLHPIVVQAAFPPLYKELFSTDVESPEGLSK
Description: Luciferase reporter gene assay of inhibitory effect against RORγ transcriptional activity (GAL4-mRORγ plasmid in CHO cells). Format: cell-based. The following applies: read-out: LUC EC50 mRORg. The procedure, abridged: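 Readout is intracellular luciferase after 2-day compound exposure (8 concentrations, 0.1% DMSO) in CHO cells expressing GAL4 fused to mouse RORγ LBD residues Ile251–Lys516 plus pG5-Luc reporter. EC50 fitted from %-of-control; points showing resazurin-detected cytotoxicity dropped.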

In the case of `Cc1ccc(NC(=O)C[C@H](OCC(F)(F)F)c2nnc([C@H]3C[C@@H](CC(C)C)C3)n2C2CC2)c(C)c1` [Example F-609], the EC50 on human RORγ and at mouse RORγ was below 3 µM each time.

In the case of `CC(=O)N1C[C@H](C(=O)Nc2ccc(Cl)cc2C)[C@@H](c2nnc(C3CC4(CCC(F)(F)CC4)C3)n2C2CC2)C1` [Example F-610], the EC50 at human RORγ and on mouse RORγ was below 3 µM throughout.

Take `CC(=O)N1C[C@H](C(=O)Nc2ccc(Cl)cc2C)[C@@H](c2nnc([C@H]3C[C@@H](CC(C)(C)F)C3)n2C2CC2)C1` [Example F-611]: the concentration for a half-maximal effect (EC50) at human RORγ and at mouse RORγ was below 3 µM in each case.

For the molecule `Cc1ccc(NC(=O)C[C@H](CCO)c2nnc(-c3cc(CC(C)(C)C)on3)n2C2CC2)c(C)c1` [Example F-612], the EC50 on human RORγ and on mouse RORγ was below 3 µM in each case.

As to `CC(=O)N1C[C@H](C(=O)Nc2ccc(Cl)cc2C)[C@@H](c2nnc(-c3cc(CC(C)C)on3)n2C2CC2)C1` [Example F-613], the EC50 at human RORγ and on mouse RORγ was below 3 µM each time.

As for `Cc1cc(Cl)ccc1NC(=O)C[C@H](OC(C)C)c1nnc(-c2cc(CC(C)C)on2)n1C1CC1` [Example F-614], the EC50 at human RORγ and at mouse RORγ was below 3 µM each time.

Consider `Cc1ccc(NC(=O)C[C@H](CCO)c2nnc(-c3cc(CCC(C)C)on3)n2C2CC2)c(C)c1` [Example F-615], for which the EC50 on human RORγ and on mouse RORγ was below 3 µM in each case.

For the molecule `Cc1cc(Cl)ccc1NC(=O)C[C@H](CCO)c1nnc(-c2cc(CCC(C)C)on2)n1C1CC1` [Example F-616], the EC50 at human RORγ and on mouse RORγ was below 3 µM throughout.

As to `Cc1ccc(NC(=O)[C@H]2CN(C)C[C@@H]2c2nnc(-c3cc(CC(C)C)on3)n2C2CC2)c(C)c1` [Example F-618], the EC50 at human RORγ and at mouse RORγ was below 3 µM throughout.

With `Cc1ccc(NC(=O)C[C@H](CCO)c2nnc(C3CC4(CCC(F)(F)CC4)C3)n2C2CC2)c(C)c1` [Example F-619], the EC50 at human RORγ and at mouse RORγ was below 3 µM in each case.

For `CC(=O)N1C[C@H](C(=O)Nc2ccc(C)cc2C)[C@@H](c2nnc(C3CC4(CCC(F)(F)CC4)C3)n2C2CC2)C1` [Example F-620], the 50% effective concentration (EC50) on human RORγ and at mouse RORγ was below 3 µM throughout.

Regarding `Cc1c(F)ccc(NC(=O)C[C@H](CCO)c2nnc([C@H]3C[C@@H](CC(C)C)C3)n2C2CC2)c1C` [Example F-623], the EC50 on human RORγ and at mouse RORγ was below 3 µM throughout.

In the case of `Cc1cc(Cl)ccc1NC(=O)C[C@H](CCO)c1nnc(C2CC3(CCC(F)(F)CC3)C2)n1C1CC1` [Example F-624], the EC50 on human RORγ and at mouse RORγ was below 3 µM each time.

Consider `Cc1ccc(NC(=O)C[C@H](CC(C)C)c2nnc(-c3cc(CC(C)(C)C)on3)n2C2CC2)c(C)c1` [Example F-625], for which the half-maximal effective concentration (EC50) at human RORγ and at mouse RORγ was below 3 µM throughout.

For `Cc1cc(Cl)ccc1NC(=O)C[C@H](CC(C)C)c1nnc(-c2cc(CC(C)(C)C)on2)n1C1CC1` [Example F-626], the EC50 at human RORγ and at mouse RORγ was below 3 µM in each case.

Take `Cc1ccc(NC(=O)C[C@H](CC(C)C)c2nnc(-c3cc(CCC(C)C)on3)n2C2CC2)c(C)c1` [Example F-627]: the EC50 on human RORγ and on mouse RORγ was below 3 µM each time.

Regarding `Cc1cc(Cl)ccc1NC(=O)C[C@H](CC(C)C)c1nnc(-c2cc(CCC(C)C)on2)n1C1CC1` [Example F-628], the EC50 at human RORγ and at mouse RORγ was below 3 µM throughout.

Regarding `Cc1ccc(NC(=O)C[C@H](OCC(F)(F)F)c2nnc(-c3cc(CC(C)C)on3)n2C2CC2)c(C)c1` [Example F-629], the EC50 on human RORγ and on mouse RORγ was below 3 µM in each case.

With `Cc1cc(Cl)ccc1NC(=O)C[C@H](OCC(F)(F)F)c1nnc(-c2cc(CC(C)C)on2)n1C1CC1` [Example F-630], the EC50 on human RORγ and on mouse RORγ was below 3 µM in each case.

Regarding `CC(=O)N1C[C@H](C(=O)Nc2ccc(C)cc2C)[C@@H](c2nnc(-c3cc(CC(C)(C)C)on3)n2C2CC2)C1` [Example F-631], the EC50 at human RORγ and at mouse RORγ was below 3 µM throughout.

For the molecule `CC(=O)N1C[C@H](C(=O)Nc2ccc(C)cc2C)[C@@H](c2nnc(-c3cc(CCC(C)C)on3)n2C2CC2)C1` [Example F-632], the EC50 at human RORγ and on mouse RORγ was below 3 µM throughout.

`Cc1c(NC(=O)C[C@H](OCC(F)(F)F)c2nnc(-c3cc(CC(C)C)on3)n2C2CC2)ccc(F)c1F` [Example F-633]: the EC50 at human RORγ and on mouse RORγ was below 3 µM each time.

As for `Cc1c(F)ccc(NC(=O)C[C@H](OCC(F)(F)F)c2nnc(-c3cc(CC(C)C)on3)n2C2CC2)c1C` [Example F-634], the concentration giving a half-maximal response (EC50) on human RORγ and at mouse RORγ was below 3 µM in each case.

Take `Cc1ccc(NC(=O)C[C@H](CC(C)C)c2noc(-c3cc(CC(C)C)on3)c2C2CC2)c(C)c1` [Example F-635]: the EC50 at human RORγ and at mouse RORγ was below 3 µM throughout.

For the molecule `Cc1ccc(NC(=O)C[C@H](CCC(=O)NS(C)(=O)=O)c2noc([C@H]3C[C@@H](CC(C)C)C3)c2C2CC2)c(C)c1` [Example F-636], the 50% effective concentration (EC50) on human RORγ and at mouse RORγ was below 3 µM in each case.

Regarding `Cc1cc(F)ccc1NC(=O)C[C@H](CC(=O)NS(C)(=O)=O)c1noc([C@H]2C[C@@H](CC(C)C)C2)c1C1CC1` [Example F-637], the EC50 at human RORγ and on mouse RORγ was below 3 µM throughout.

Regarding `Cc1ccc(NC(=O)C[C@H](CC#N)c2noc([C@H]3C[C@@H](CC(C)C)C3)c2C2CC2)c(C)c1` [Example F-638], the EC50 at human RORγ and at mouse RORγ was below 3 µM each time.

Consider `Cc1ccc(NC(=O)C[C@H](CC(=O)NC(C)(C)C)c2noc([C@H]3C[C@@H](CC(C)C)C3)c2C2CC2)c(C)c1` [Example F-639], for which the EC50 at human RORγ and on mouse RORγ was below 3 µM throughout.

As for `Cc1ccc(NC(=O)C[C@H](Cc2noc(=O)[nH]2)c2noc([C@H]3C[C@@H](CC(C)C)C3)c2C2CC2)c(C)c1` [Example F-640], the EC50 at human RORγ and at mouse RORγ was below 3 µM throughout.

`Cc1ccc(NC(=O)C[C@H](Cc2nnn[nH]2)c2noc([C@H]3C[C@@H](CC(C)C)C3)c2C2CC2)c(C)c1` [Example F-641]: the EC50 on human RORγ and on mouse RORγ was below 3 µM throughout.

Turning to `Cc1ccc(NC(=O)C[C@H](CC(N)=O)c2noc([C@H]3C[C@@H](CC(C)C)C3)c2C2CC2)c(C)c1` [Example F-642], the EC50 at human RORγ and at mouse RORγ was below 3 µM throughout.

For `Cc1ccc(NC(=O)C[C@H](CCc2noc(=O)[nH]2)c2noc([C@H]3C[C@@H](CC(C)C)C3)c2C2CC2)c(C)c1` [Example F-643], the EC50 on human RORγ and on mouse RORγ was below 3 µM in each case.

As for `Cc1ccc(NC(=O)C[C@H](CCc2nnn[nH]2)c2noc([C@H]3C[C@@H](CC(C)C)C3)c2C2CC2)c(C)c1` [Example F-644, (S)-3-[4-cyclopropyl-5-(3-isobutyl-cyclobutyl)-isoxazol-3-yl]-5-(1H-tetrazole-5-yl)-valeric acid (2,4-dimethyl-phenyl)-amide], the concentration giving a half-maximal response (EC50) at human RORγ and on mouse RORγ was below 3 µM in each case.

On to `CCOC(=O)/C=C/c1c(CCC(=O)Nc2ccc(C)cc2C)noc1[C@H]1C[C@@H](CC(C)C)C1` [Example F-645], for which the EC50 on human RORγ and on mouse RORγ was above 3 µM each time.

`Cc1ccc(NC(=O)CCc2noc([C@H]3C[C@@H](CC(C)C)C3)c2/C=C/C(=O)O)c(C)c1` [Example F-646]: the EC50 on human RORγ and on mouse RORγ was above 3 µM each time.
